In patent US12064464B2, “Plantaricin NC8 alpha beta markedly enhances the effects of antibiotics” (priority 2018, dated 2024):
Entries after “also recorded” stand apart in the source; their conditions may differ. Where two headings read alike, the source gives them in different places.

Experiments:
Pseudomonas aeruginosa = test: Broth microdilution MIC/MBC; assay type: cell-based; settings: P. aeruginosa, antibiotic alone, unit not given
Description: (§1) Staphylococcus aureus CCUG 35601 (MRSA, Culture Collection, University of Gothenburg) and Staphylococcus aureus ATCC 29213 (MSSA, ATCC, Manassas, VA). Staphylococcus epidermidis ATCC 12228 (ATCC, Manassas, VA), RP62A, N15 and 10 clinical isolates of Staphylococcus epidermidis that have previously been characterized. Isolated Escherichia coli, Enterococcus faecium (including VRE), Pseudomonas aeruginosa, Klebsiella pneumoniae, Enterobacter spp and Acinetobacter baumannii were obtained from Orebro University hospital. Isolated Streptococcus mutans, Streptococcus constellatus and Streptococcus anginosus were obtained from Malmo University. The bacteria were grown on Luria-Bertani (LB) agar plates, supplemented with 5% defibrinated horse blood, and incubated at 37° C. overnight. Single colonies were inoculated into 5 ml of LB broth and incubated on a shaker (300 rpm) at 37° C. overnight. The bacterial concentration was determined by viable count and adjusted to correlate with approximately 10^9 CFU/ml.
(§2) The broth microdilution method was used to determine minimal inhibitory concentration (MIC) and minimal bactericidal concentration (MBC). Two-fold serial dilutions of the peptides were used and the final concentrations ranged from 0.097-50 μM. […] The effect of bacteriocin-antibiotic combinations was accomplished by using the same concentration series of antibiotics with a constant concentration of PLNC8 αβ (3.1 μM) in all the wells. […] All experiments were repeated at least three times.

Enterococcus faecium = test: Broth microdilution MIC/MBC; assay type: cell-based; settings: antibiotic alone, unit inferred; for MIC: unit assumed
Description: as §1, §2

Escherichia coli = test: Broth microdilution MIC/MBC; assay type: cell-based; settings: antibiotic alone, unit not given; for MBC: in µg/mL
Description: as §1, §2

[1] = tested on: S. epidermidis ATCC 12228; test: Broth microdilution MIC/MBC; assay type: cell-based, Staphylococcus epidermidis; settings: for enhancement of the inhibitory effects of β1-20 and β7-20: co-incubation with α-peptide; for inhibitory and bactericidal effects on S. epidermidis: α-peptide in combination with the β-peptide; for growth inhibition of S. epidermidis: single full-length or truncated peptide
Description: as §1, §2

S. epidermidis = test: Broth microdilution MIC/MBC, strain not named; assay type: cell-based, Staphylococcus epidermidis; settings: for MBC / MIC: Table 8, antibiotic alone
Description: as §1, §2

[2] = tested on: S. aureus CCUG 35601 (MRSA); test: Broth microdilution MIC/MBC; assay type: cell-based, Staphylococcus aureus
Description: as §1, §2

[3] = tested on: S. epidermidis 157 (hGISE strain); test: Broth microdilution MIC/MBC; assay type: cell-based, Staphylococcus epidermidis
Description: as §1, §2

[4] = tested on: S. epidermidis 126 (hGISE strain); test: Broth microdilution MIC/MBC; assay type: cell-based, Staphylococcus epidermidis
Description: as §1, §2

S. epidermidis 154 = test: Broth microdilution MIC/MBC; assay type: cell-based, Staphylococcus epidermidis
Description: as §1, §2

[5] = Fluorescence leakage assay (CF release from liposomes); settings: for disruption of liposome membranes (CF release): peptide alone; for lysis of liposomes: after 2 min, both the L-form and D-form
Experimental: Liposomes were prepared by dry film formation, hydration and finally extrusion through a polycarbonate membrane to form monodisperse large unilamellar vesicles. […] A dry lipid film was formed by evaporation of the chloroform by nitrogen flow and overnight lyophilization. The film was hydrated with either 10 mM phosphate buffer (PB) pH 7 or 10 mM phosphate buffer saline (PBS) pH 7, and the solution was vortexed for 1 min and put on a shaker for 1 h before extruded 21 times through a 100 nm pore-sized polycarbonate membrane. For fluorescence leakage assay the lipid film was hydrated with buffer (PBS) containing self-quenching concentration (50 mM) of 5(6)-carboxyfluorescein (CF) (Sigma Aldrich) and liposomes were prepared as described above. Removal of unencapsulated CF was done by gel filtration using a PD-25 column (GE Healthcare, Uppsala, Sweden) and liposomes with encapsulated CF were eluted with PBS. Leakage of the liposome encapsulated fluorophore CF due to additions of the bacteriocins was recorded using a fluorescence plate reader (Infinite 200, Tecan, Austria) where λex=485 nm and λem=520 nm. CF was encapsulated at self-quenching concentration, and CF release results in an increased fluorescence signal. […] In order to estimate the maximum release from each sample a final addition of 0.5% Triton X-100 was made at the end of all measurements and the total amount of CF (100% release) was estimated after 15 min incubation. The CF release is presented as percentage release for each time interval (measurements taken every minute). The percentage CF release is calculated as 100×(F−F0)/(FT−F0) where F0 is the initial fluorescence intensity of CF before peptide addition, F is the fluorescence intensity of CF at time point t and FT is the maximum fluorescence after the addition of Triton X-100.

[6] = tested on: S. epidermidis RP62A biofilms; test: Bacterial biofilm disruption; assay type: cell-based, Staphylococcus epidermidis; settings: 1 h
Experimental: S. epidermidis RP62A was inoculated into 5 ml of LB broth and incubated on a shaker at 37° C. overnight. The bacterial culture was diluted 1:100 into fresh media and 100 μl of bacterial suspension per well was added in a 96-well microtiter plate and incubated statically at 37° C. for 20 h. The wells were washed three times by submerging the plate into a container with distilled water to remove unattached cells. Fresh LB media was added to each well (100 μl) followed by addition of the peptides in different concentrations. The plate was incubated statically for 1 h. Detached material in the wells were transferred to a new microtiter plate for absorbance measurements at 620 nm. The remaining attached biofilms were stained with 0.1% crystal violet for 15 min before the plate was washed four times in distilled water as mentioned above and allowed to dry at room temperature for 2 h. The crystal violet was solubilized in 30% acetic acid for 15 min and the absorbance quantified at 550 nm. Each experiment, with three replicates, was repeated three times.

[7] = Vancomycin resistant E. faecium (VRE)
[8] = Non-ESBL E. coli, first isolate
[9] = Non-ESBL E. coli, second isolate
[10] = Staphylococcus epidermidis, ATCC12228
[11] = Staphylococcus epidermidis, 154
[12] = ESBL-producing E. coli, first isolate
[13] = ESBL-producing E. coli, second isolate
[14] = Table 3, MRSA, antibiotic alone

With `C[C@H]1COc2c(N3CCN(C)CC3)c(F)cc3c(=O)c(C(=O)O)cn1c23` [Levofloxacin, reference compound] the MBC (Pseudomonas aeruginosa; first isolate) was 2, the MIC (Pseudomonas aeruginosa; first isolate) was 1 and the MBC (Pseudomonas aeruginosa; second isolate) was 4. The MIC (Pseudomonas aeruginosa; second isolate) was 4.

`C[C@@H](O)[C@H]1C(=O)N2C(C(=O)O)=C(S[C@@H]3CN[C@H](C(=O)N(C)C)C3)[C@H](C)[C@H]12` [Meropenem, reference compound] gave an MBC (Pseudomonas aeruginosa; first isolate) of 50, an MIC (Pseudomonas aeruginosa; first isolate) of 25 and an MBC (Pseudomonas aeruginosa; second isolate) of 25. The MIC (Pseudomonas aeruginosa; second isolate) was 25.

`CO[C@H]1/C=C/O[C@@]2(C)Oc3c(C)c(O)c4c(O)c(c(/C=N/N5CCN(C)CC5)c(O)c4c3C2=O)NC(=O)/C(C)=C\C=C\[C@H](C)[C@H](O)[C@@H](C)[C@@H](O)[C@@H](C)[C@H](OC(C)=O)[C@@H]1C` [Rifampicin] showed an MBC (Enterococcus faecium; E. faecium, first isolate) of over 50 µg/mL, an MIC (Enterococcus faecium; E. faecium, first isolate) of over 50 µg/mL and an MBC (Enterococcus faecium; E. faecium, second isolate) of over 50 µg/mL. The MIC (Enterococcus faecium; E. faecium, second isolate) was 25 µg/mL, the MBC (Enterococcus faecium; [7]) was 3.1 µg/mL and the MIC (Enterococcus faecium; [7]) was under 0.097 µg/mL. The MIC (Escherichia coli; [8]) was 6.25, the MIC (Escherichia coli; [9]) was 6.25 and the MBC (Escherichia coli; [9]) was 25. The MBC ([1]; Staphylococcus epidermidis, ATCC12228, Table 2, antibiotic alone, read-out: MBC) was 0.5 µg/mL, the MIC ([1]; Staphylococcus epidermidis, ATCC12228, Table 2, antibiotic alone, read-out: MIC) was 0.25 µg/mL and the MBC (S. epidermidis; Staphylococcus epidermidis, read-out: MBC) was 0.5 µg/mL. The MIC (S. epidermidis; Staphylococcus epidermidis, read-out: MIC) was 0.25 µg/mL and the “effective amount of rifampicin” value (S. epidermidis; in the presence of L-PLNC8 αβ or D-PLNC8 αβ) was 0.0019 µg/mL.

Molecule `CN[C@H](CC(C)C)C(=O)N[C@H]1C(=O)N[C@@H](CC(N)=O)C(=O)N[C@H]2C(=O)N[C@H]3C(=O)N[C@H](C(=O)N[C@H](C(=O)O)c4cc(O)cc(O)c4-c4cc3ccc4O)[C@H](O)c3ccc(c(Cl)c3)Oc3cc2cc(c3O[C@@H]2O[C@H](CO)[C@@H](O)[C@H](O)[C@H]2O[C@H]2C[C@](C)(N)[C@H](O)[C@H](C)O2)Oc2ccc(cc2Cl)[C@H]1O` [Vancomycin] has an MBC ([2]; Staphylococcus aureus) of 3.1 µg/mL, an MIC ([2]; Staphylococcus aureus) of 1.5 µg/mL and an MBC ([3]; Staphylococcus epidermidis) of 6.25 µg/mL. The MIC ([3]; Staphylococcus epidermidis) was 6.25 µg/mL, the MBC [1, 10] was 3.1 µg/mL and the MIC [1, 10] was 1.5 µg/mL. The MBC ([4]; Staphylococcus epidermidis) was 3.1 µg/mL, the MIC ([4]; Staphylococcus epidermidis) was 3.1 µg/mL and the MBC (S. epidermidis 154; [11]) was 3.1 µg/mL. For the same molecule, the MIC (S. epidermidis 154; [11]) was 1.5 µg/mL.

With “DLTTKLWSSWGYYLG (Lactobacillus plantarum NC8) [α1-15]” the “enhancement of the inhibitory effects of β1-20 and β7-20” value [1] was “not further enhanced; also recorded: did not further enhance”.

For “DLTTKLWSSWGYYLGKKARWNL (Lactobacillus plantarum NC8) [α1-22]”, the “enhancement of the inhibitory effects of β1-20 and β7-20” value [1] was “not further enhanced; also recorded: did not further enhance”, the “inhibitory and bactericidal effects on S. epidermidis” value [1] was “exerted inhibitory and bactericidal effects; also recorded: inhibited” and the “disruption of liposome membranes (CF release)” value (from here on “disruption … (CF release)”) [5] was “disrupted the membrane of the liposomes”.

Molecule Gentamicin has an MBC (Enterococcus faecium; E. faecium, first isolate) of over 50 µg/mL, an MIC (Enterococcus faecium; E. faecium, first isolate) of 50 µg/mL and an MBC (Enterococcus faecium; E. faecium, second isolate) of 50 µg/mL. The MIC (Enterococcus faecium; E. faecium, second isolate) was 50 µg/mL, the MBC (Enterococcus faecium; [7]) was over 50 µg/mL and the MIC (Enterococcus faecium; [7]) was over 50 µg/mL. The MIC (Escherichia coli; [12]) was over 50, the MBC (Escherichia coli; [12]) was over 50 and the MIC (Escherichia coli; [13]) was 3.125. For the same molecule, the MBC (Escherichia coli; [13]) was 6.25, the MIC (Escherichia coli; [8]) was 1.56 and the MBC (Escherichia coli; [8]) was 1.56. For the same molecule, the MIC (Escherichia coli; [9]) was 1.56, the MBC (Escherichia coli; [9]) was 3.125 and the MBC ([1]; Table 2, antibiotic alone) was 0.31 µg/mL. For the same molecule, the MIC ([1]; Table 2, antibiotic alone) was 0.31 µg/mL.

For “H-DLTTKLWSSWGYYLGKKARWNLKHPYVQF-OH [PLNC8 α]”, the disruption of biofilms [6] was “disruptive effects on the biofilms”, the “enhancement of the inhibitory effects of β1-20 and β7-20” value [1] was “not further enhanced” and the “inhibitory and bactericidal effects on S. epidermidis” value [1] was “inhibited”. For the same molecule, the lysis of liposomes [5] was “not” and the “disruption … (CF release)” value [5] was “disrupted the membrane of the liposomes”.

With “H-SVPTSVYTLGIKILWSAYKHRKTIEKSFNKGFYH-OH [PLNC8 β]” the disruption of biofilms [6] was “disruptive effects on the biofilms”, the “growth inhibition of S. epidermidis” value [1] was “inhibited” and the lysis of liposomes [5] was “complete lysis of liposomes after 2 min”. The “disruption … (CF release)” value [5] was “Disruption of the liposome membranes”.

In the case of “SVPTSVYTLGIKILWSAYKH (Lactobacillus plantarum NC8) [β1-20]”, the “growth inhibition of S. epidermidis” value [1] is reported as “most efficiently inhibited; also recorded: most effective in inhibiting S. epidermidis; also recorded: inhibited” and the “disruption … (CF release)” value [5] is reported as “Disruption of the liposome membranes”.

With Teicoplanin the MBC [2, 14] was 3.1 µg/mL, the MIC [2, 14] was 0.78 µg/mL and the MBC (Enterococcus faecium; E. faecium, first isolate) was over 50 µg/mL. The MIC (Enterococcus faecium; E. faecium, first isolate) was over 50 µg/mL, the MBC (Enterococcus faecium; E. faecium, second isolate) was 25 µg/mL and the MIC (Enterococcus faecium; E. faecium, second isolate) was 0.39 µg/mL. For the same molecule, the MBC (Enterococcus faecium; [7]) was 50 µg/mL, the MIC (Enterococcus faecium; [7]) was 0.39 µg/mL and the MIC (Escherichia coli; [12]) was over 50. The MBC (Escherichia coli; [12]) was over 50, the MIC (Escherichia coli; [13]) was over 50 and the MBC (Escherichia coli; [13]) was over 50. The MIC (Escherichia coli; [8]) was over 50, the MBC (Escherichia coli; [8]) was over 50 and the MIC (Escherichia coli; [9]) was over 50. For the same molecule, the MBC (Escherichia coli; [9]) was over 50, the MBC ([3]; Table 3, antibiotic alone) was 25 µg/mL and the MIC ([3]; Table 3, antibiotic alone) was 12.5 µg/mL. The MBC ([1]; Table 2, antibiotic alone) was 1.5 µg/mL, the MIC ([1]; Table 2, antibiotic alone) was 1.5 µg/mL and the MBC ([4]; Table 3, antibiotic alone) was 6.25 µg/mL. It also gave an MIC ([4]; Table 3, antibiotic alone) of 3.1 µg/mL, an MBC (S. epidermidis 154; Table 3, antibiotic alone) of 1.5 µg/mL and an MIC (S. epidermidis 154; Table 3, antibiotic alone) of 1.5 µg/mL. For the same molecule, the MBC (S. epidermidis) was 1.5 µg/mL and the MIC (S. epidermidis) was 1.5 µg/mL.

With “YTLGIKILWSAYKH (Lactobacillus plantarum NC8) [β7-20]” the “growth inhibition of S. epidermidis” value [1] was “most efficiently inhibited; also recorded: inhibited” and the “disruption … (CF release)” value [5] was “Disruption of the liposome membranes”.

With “YTLGIKILWSAYKHRKTIEKSFNKGFYH (Lactobacillus plantarum NC8) [β7-34]” the “growth inhibition of S. epidermidis” value [1] was “inhibited” and the “disruption … (CF release)” value [5] was “Disruption of the liposome membranes”.
